Data: ChEMBL document CHEMBL4673286, “Selective recognition of DNA parallel G-quadruplexes by 3,8a-disubstituted indolizinones” (Bioorg Med Chem, 2021)
The source made the active and inactive calls. No cut-off for these calls is given here.

Assays:
[1] = tested on: Quadruplex DNA; assay: Binding affinity to c-myc G-quadruplex DNA (unknown origin) in PBS buffer 40 mM K+ at 5 uM by spectrofluorimetric analysis; type: nucleic-acid assay
[2] = tested on: Quadruplex DNA; assay: Effect on c-myc G-quadruplex DNA (unknown origin) configuration in water at 5 uM spectropolarimeter; type: ADME, nucleic-acid assay; details: buffer
[3] = tested on: HT-1080; assay: Cytotoxicity against human HT-1080 cells assessed as reduction in cell viability at 10 uM incubated for 72 hrs by MTT assay relative to control; type: functional
[4] = tested on: MCF7; assay: Cytotoxicity against human MCF7 cells assessed as reduction in cell viability at 10 uM incubated for 72 hrs by MTT assay relative to control; type: functional
[5] = tested on: HeLa; assay: Cytotoxicity against human HeLa cells assessed as reduction in cell viability at 10 uM incubated for 72 hrs by MTT assay relative to control; type: functional
[6] = tested on: Quadruplex DNA; assay: Effect on c-myc G-quadruplex DNA (unknown origin) configuration in PBS buffer 40 mM K+ at 5 uM by spectropolarimeter; type: ADME, nucleic-acid assay
[7] = Drug localization in nucleus of human MCF7 cells at 10 uM incubated for 4 hrs in presence of urea by propidium iodide staining based by confocal microscopy; type: ADME, cell-based; details: mcf7, 4 h
[8] = Drug localization in nucleus of human HeLa cells at 10 uM incubated for 4 hrs in presence of urea by propidium iodide staining based by confocal microscopy; type: ADME
[9] = Drug localization in cytoplasm of human MCF7 cells at 10 uM incubated for 4 hrs by propidium iodide staining based by confocal microscopy; type: ADME, cell-based; details: mcf7, 4 h
[10] = Drug localization in nucleus of human MCF7 cells at 10 uM incubated for 4 hrs by propidium iodide staining based by confocal microscopy; type: ADME, cell-based; details: mcf7, 4 h
[11] = Drug localization in nucleus of human HeLa cells at 10 uM incubated for 4 hrs by propidium iodide staining based by confocal microscopy; type: ADME
[12] = Drug localization in cytoplasm of human HeLa cells at 10 uM incubated for 4 hrs by propidium iodide staining based by confocal microscopy; type: ADME
[13] = Drug localization in human HeLa cells at 10 uM incubated for 4 hrs by MitoTracker Deep Red and Lyso-Tracker Red DND-99 staining based by confocal microscopy; type: ADME, cell-based
[14] = tested on: DNA; assay: Binding affinity to ds26 DNA sequence (unknown origin) by spectrofluorimetric analysis; type: nucleic-acid assay
[15] = Binding affinity to dx12ab DNA sequence (unknown origin) by spectrofluorimetric analysis
[16] = Binding affinity to TBA DNA sequence (unknown origin) by spectrofluorimetric analysis
[17] = tested on: Quadruplex DNA; assay: Binding affinity to c-myc G-quadruplex DNA (unknown origin) in PBS buffer (40 mM K+, pH 7.4) by spectrofluorimetric analysis; type: nucleic-acid assay

SMILES: O=C1C=C(c2cccnc2)N2C=CC=CC12c1ccccn1 (stereo not given)
- Activity [1]: Active
- Activity [2]: Not Active
- inhibition at 10 µM [3]: 30.3%
- inhibition at 10 µM [4]: 16.5%
- inhibition at 10 µM [5]: 3%
- Activity [6]: Not Active

SMILES: O=C1C=C(c2ccc(Cl)cc2)N2C=CC=CC12c1ccccn1 (stereo not given)
- Activity [1]: Active
- Activity [2]: Not Active
- inhibition at 10 µM [3]: 15.6%
- inhibition at 10 µM [4]: 4.7%
- inhibition at 10 µM [5]: 16.6%
- Activity [6]: Not Active

SMILES: O=C1C=C(c2ccc3ccccc3c2)N2C=CC=CC12C(F)(F)F (stereo not given)
- Activity [1]: Active
- Activity [2]: Not Active
- inhibition at 10 µM [3]: 2.9%
- inhibition at 10 µM [4]: -11.9%
- inhibition at 10 µM [5]: -1.3%
- Activity [6]: Not Active

SMILES: O=C1C=C(c2ccccn2)N2C=CC=CC12c1ccccn1 (stereo not given)
- Activity [1]: Active
- Activity [2]: Not Active
- inhibition at 10 µM [3]: 8.5%
- inhibition at 10 µM [4]: 7.9%
- inhibition at 10 µM [5]: 3.7%
- Activity [6]: Not Active

SMILES: O=C1C=C(c2ccncc2)N2C=CC=CC12c1ccccn1 (stereo not given)
- Activity [1]: Active
- Activity [2]: Not Active
- inhibition at 10 µM [3]: 1.8%
- inhibition at 10 µM [4]: 19.3%
- inhibition at 10 µM [5]: 5.9%
- Activity [6]: Not Active

SMILES: O=C1C=C(c2ccc(-c3ccccc3)cc2)N2C=CC=CC12c1ccccn1 (stereo not given)
- Activity [1]: Active
- Activity [2]: Not Active
- inhibition at 10 µM [3]: 32.2%
- inhibition at 10 µM [4]: 14.3%
- inhibition at 10 µM [5]: 5.7%
- Activity [6]: Not Active

SMILES: O=C1C=C(c2ccc3ccccc3c2)N2C=CC=CC12c1ccccn1 (stereo not given)
- Activity [1]: Active
- Activity [2]: Not Active
- Drug uptake [7]: Active
- Drug uptake [8]: Active
- Drug uptake [9]: Active
- Drug uptake [10]: Active
- Drug uptake [11]: Active
- Drug uptake [12]: Active
- Drug uptake [13]: Active
- inhibition at 10 µM [3]: 30.4%
- inhibition at 10 µM [4]: 24.3%
- inhibition at 10 µM [5]: 11.1%
- K [14]: inactive
- K [15]: inactive
- K [16]: inactive
- Activity [6]: Not Active

SMILES: O=c1[nH]cc(F)c(=O)[nH]1 [FLUOROURACIL]
- inhibition at 10 µM [3]: 65.3%
- inhibition at 10 µM [4]: 41.9%
- inhibition at 10 µM [5]: 44%

SMILES: O=C1C=C(c2ccccc2)N2C=CC=CC12C(F)(F)F (stereo not given)
- Activity [1]: Active
- Activity [2]: Not Active
- inhibition at 10 µM [3]: 15.9%
- inhibition at 10 µM [4]: 18.7%
- inhibition at 10 µM [5]: -4.7%
- K [17]: inactive
- Activity [6]: Not Active

SMILES: O=C1C=C(c2ccc([N+](=O)[O-])cc2)N2C=CC=CC12c1ccccn1 (stereo not given)
- Activity [1]: Active
- Activity [2]: Not Active
- inhibition at 10 µM [3]: -4.2%
- inhibition at 10 µM [4]: 12.5%
- inhibition at 10 µM [5]: 2.9%
- K [17]: inactive
- Activity [6]: Not Active

SMILES: COc1ccc(C2=CC(=O)C3(c4ccccn4)C=CC=CN23)cc1 (stereo not given)
- Activity [1]: Active
- Activity [2]: Not Active
- inhibition at 10 µM [3]: 46.1%
- inhibition at 10 µM [4]: 0.6%
- inhibition at 10 µM [5]: 3.2%
- Activity [6]: Not Active
